Blank lines part the entries; values can stand above or below the molecule they belong to.
Test system: 966289-007-R4-J1-PDC complex spheroid viability
Test: Anticancer human tumor 966289-007-R4-J1-PDC patient-derived pancreatic adenocarcinoma cell line growth inhibition [GQUAD]
Details: for IC50: curve of first compound; for viability, T/C: stronger effect = lower value
Procedure, shortened: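 Tumor cells were grown as complex spheroids with HUVEC endothelial cells and mesenchymal stem cells as stroma. G-quadruplex stabilizers were combined with targeted agents over half-log dilutions from near the clinical Cmax, or from 10 microM.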

[1] = second compound 0.0316 µM, first compound 0.0316 µM
[2] = second compound 0.0316 µM, first compound 0.1 µM
[3] = second compound 0.0316 µM, first compound 0.316 µM
[4] = second compound 0.0316 µM, first compound 1 µM
[5] = second compound 0.0316 µM, first compound 3.16 µM
[6] = second compound 0.0316 µM, first compound 10 µM
[7] = second compound 0.1 µM, first compound 0.0316 µM
[8] = second compound 0.1 µM, first compound 0.1 µM
[9] = second compound 0.1 µM, first compound 0.316 µM
[10] = second compound 0.1 µM, first compound 1 µM
[11] = second compound 0.1 µM, first compound 3.16 µM
[12] = second compound 0.1 µM, first compound 10 µM
[13] = second compound 0.316 µM, first compound 0.0316 µM
[14] = second compound 0.316 µM, first compound 0.1 µM
[15] = second compound 0.316 µM, first compound 0.316 µM
[16] = second compound 0.316 µM, first compound 1 µM
[17] = second compound 0.316 µM, first compound 3.16 µM
[18] = second compound 0.316 µM, first compound 10 µM
[19] = second compound 1 µM, first compound 0.0316 µM
[20] = second compound 1 µM, first compound 0.1 µM
[21] = second compound 1 µM, first compound 0.316 µM
[22] = second compound 1 µM, first compound 1 µM
[23] = second compound 1 µM, first compound 3.16 µM
[24] = second compound 1 µM, first compound 10 µM
[25] = second compound 3.16 µM, first compound 0.0316 µM
[26] = second compound 3.16 µM, first compound 0.1 µM
[27] = second compound 3.16 µM, first compound 0.316 µM
[28] = second compound 3.16 µM, first compound 1 µM
[29] = second compound 3.16 µM, first compound 3.16 µM
[30] = second compound 3.16 µM, first compound 10 µM
[31] = second compound 10 µM, first compound 0.0316 µM
[32] = second compound 10 µM, first compound 0.1 µM
[33] = second compound 10 µM, first compound 0.316 µM
[34] = second compound 10 µM, first compound 1 µM
[35] = second compound 10 µM, first compound 3.16 µM
[36] = second compound 10 µM, first compound 10 µM
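Note: spheroids exposed to the agents for seven days before readout.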
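Throughout, for viability, T/C: percent viability relative to DMSO vehicle control wells taken as 100%.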

SMILES: CC1COCCN1c1cc(-c2ccnn2C)c2ccnc(-c3ccn[nH]3)c2n1 (stereo unspecified) + Cc1[nH]c2ccc(F)cc2c1-c1nc2c3cccnc3c3ncccc3c2[nH]1
IC50 (second compound 0.0316 µM): 170 nM
IC50 (second compound 0.1 µM): 161 nM
IC50 (second compound 0.316 µM): 172 nM
IC50 (second compound 1 µM): 177 nM
IC50 (second compound 3.16 µM): 79.9 nM
IC50 (second compound 10 µM): 69.3 nM
viability, T/C [1]: 114%
viability, T/C [2]: 77.8%
viability, T/C [3]: 17.3%
viability, T/C [4]: 5.52%
viability, T/C [5]: 4.65%
viability, T/C [6]: 3.39%
viability, T/C [7]: 115%
viability, T/C [8]: 73.2%
viability, T/C [9]: 17%
viability, T/C [10]: 6.08%
viability, T/C [11]: 4.45%
viability, T/C [12]: 3%
viability, T/C [13]: 110%
viability, T/C [14]: 80.3%
viability, T/C [15]: 15.6%
viability, T/C [16]: 7.15%
viability, T/C [17]: 4.49%
viability, T/C [18]: 3.06%
viability, T/C [19]: 105%
viability, T/C [20]: 78.1%
viability, T/C [21]: 21.1%
viability, T/C [22]: 8.54%
viability, T/C [23]: 5.16%
viability, T/C [24]: 2.92%
viability, T/C [25]: 94.4%
viability, T/C [26]: 39.3%
viability, T/C [27]: 8.27%
viability, T/C [28]: 7.24%
viability, T/C [29]: 5.24%
viability, T/C [30]: 4.9%
viability, T/C [31]: 96.4%
viability, T/C [32]: 28.4%
viability, T/C [33]: 5.29%
viability, T/C [34]: 5.42%
viability, T/C [35]: 5.48%
viability, T/C [36]: 5.5%

IC50 (second compound 0.0316 µM): > 10000 nM
IC50 (second compound 0.1 µM): < 31.6 nM
IC50 (second compound 0.316 µM): < 31.6 nM
IC50 (second compound 1 µM): < 31.6 nM
IC50 (second compound 3.16 µM): < 31.6 nM
IC50 (second compound 10 µM): < 31.6 nM
SMILES: C#Cc1c(F)ccc2cc(O)cc(-c3ncc4c(N5CC6CCC(C5)N6)nc(OCC56CCCN5CC(F)C6)nc4c3F)c12 (stereo unspecified) + Cc1cnc(CNC(=O)c2c(=O)c3ccc(N4CCCN(C)CC4)nc3n3c2sc2ccccc23)cn1
viability, T/C [1]: 114%
viability, T/C [2]: 114%
viability, T/C [3]: 111%
viability, T/C [4]: 116%
viability, T/C [5]: 122%
viability, T/C [6]: 114%
viability, T/C [7]: 38.4%
viability, T/C [8]: 31.4%
viability, T/C [9]: 34.2%
viability, T/C [10]: 31.9%
viability, T/C [11]: 40.5%
viability, T/C [12]: 33.9%
viability, T/C [13]: 10.9%
viability, T/C [14]: 11.8%
viability, T/C [15]: 13.7%
viability, T/C [16]: 12.7%
viability, T/C [17]: 11%
viability, T/C [18]: 7.05%
viability, T/C [19]: 6%
viability, T/C [20]: 4.8%
viability, T/C [21]: 5.85%
viability, T/C [22]: 6.1%
viability, T/C [23]: 6.94%
viability, T/C [24]: 2.87%
viability, T/C [25]: 4.4%
viability, T/C [26]: 5.02%
viability, T/C [27]: 5.21%
viability, T/C [28]: 4.53%
viability, T/C [29]: 4.58%
viability, T/C [30]: 0.22%
viability, T/C [31]: 0.1%
viability, T/C [32]: 0.14%
viability, T/C [33]: 0.14%
viability, T/C [34]: 0.28%
viability, T/C [35]: 0.16%
viability, T/C [36]: 0.11%

SMILES: Cc1cccc(N(C)C(=O)C2C(O)CCN2c2nc(C)cc(C(F)(F)F)c2C#N)c1 (stereo unspecified) + Cc1[nH]c2ccc(F)cc2c1-c1nc2c3cccnc3c3ncccc3c2[nH]1
IC50 (second compound 0.0316 µM): > 10000 nM
IC50 (second compound 0.1 µM): > 10000 nM
IC50 (second compound 0.316 µM): > 10000 nM
IC50 (second compound 1 µM): > 10000 nM
IC50 (second compound 3.16 µM): > 10000 nM
IC50 (second compound 10 µM): > 10000 nM
viability, T/C [1]: 109%
viability, T/C [2]: 90.5%
viability, T/C [3]: 108%
viability, T/C [4]: 90.6%
viability, T/C [5]: 106%
viability, T/C [6]: 104%
viability, T/C [7]: 109%
viability, T/C [8]: 98.6%
viability, T/C [9]: 97.2%
viability, T/C [10]: 101%
viability, T/C [11]: 106%
viability, T/C [12]: 103%
viability, T/C [13]: 97.6%
viability, T/C [14]: 104%
viability, T/C [15]: 98.1%
viability, T/C [16]: 104%
viability, T/C [17]: 99.7%
viability, T/C [18]: 106%
viability, T/C [19]: 102%
viability, T/C [20]: 96.8%
viability, T/C [21]: 98.7%
viability, T/C [22]: 106%
viability, T/C [23]: 97.2%
viability, T/C [24]: 110%
viability, T/C [25]: 104%
viability, T/C [26]: 104%
viability, T/C [27]: 110%
viability, T/C [28]: 107%
viability, T/C [29]: 113%
viability, T/C [30]: 114%
viability, T/C [31]: 107%
viability, T/C [32]: 102%
viability, T/C [33]: 110%
viability, T/C [34]: 104%
viability, T/C [35]: 103%
viability, T/C [36]: 113%

— PubChem BioAssay AID2060488 (Molecular Pharmacology Branch, DTP, NCI, 2025)
